Experimental data: patent publication US4804660A, “Ergot cyclic peptide alkaloids having a venotonizing effect, useful for treating orthostatic hypotension” (Sandoz Ltd., priority 1981, dated 1989)

Assays:
rat brain = test: carbon-14-2-deoxyglucose autoradiographic technique, local cerebral glucose utilisation; type: in vivo; conditions: 3 mg/kg i.p.
Description: Moreover the compounds increase the local cerebral glucose utilisation in the sensomotor cartex, e.g. Hippocampus, Nucleus habenula, Nucleus corpus gentcul . As indicated by the carbon-14-2-deoxyglucose autoradiographic technique with the rat brain on administration i.p. of from about 0.3 to about 30 mg/kg of the compounds [for method see e.g. L. Solokoff, Journal of Cerebral Blood Flow and Metabolism, 1981, (1), 7-36, H. E. Savaki et al. Brain Research 1982, 233, 347 and J. McCulloch et al. Journal of Cerebral Blood Flow and Metabolism 1981, 1, 133-136.

rat = test: apomorphine stereotypy test / stereotypy in the rat; type: in vivo; conditions: 30 mg/kg i.p.
Description: The compounds moreover induce stereotypy in the rat at a dose of about 30 mg/kg i.p.
and has a score. in the apomorphine stereotypy test of 15.7 at 30 mg/kg i.p .

In the case of “2-methyl-9,10-dihydro-9'-thia-α-ergocryptine”, the “increase in local cerebral glucose utilisation, Hippocampus” value (rat brain; Hippocampus) is reported as “+2%”, the “increase in local cerebral glucose utilisation, Nucleus dors.corpus genicul.lat” value (rat brain; Nucleus dors.corpus genicul.lat) is reported as “+25%” and the “increase in local cerebral glucose utilisation, Nucleus lateralis huberula” value (rat brain; Nucleus lateralis huberula) is reported as “+22%”. The “score in the apomorphine stereotypy test” value (rat) was 15.7.
